Where two headings read alike, the source gives them in different places.
What was measured:
[1] = tested on: SARS-CoV-2 RNA; assay type: in vivo; details: for SARS-CoV-2 RNA titer, mean / SARS-CoV-2 RNA titer, mean change from baseline: interim
[2] = baseline RNA titer >10^6 copies/ml, Day 3
[3] = baseline RNA titer >10^6 copies/ml, Day 10
[4] = baseline RNA titer >10^6 copies/ml, Day 15
[5] = baseline RNA titer >10^6 copies/ml, Day 29
[6] = baseline RNA titer >10^6 copies/ml, EOT (Day 5)
[7] = baseline RNA titer ≤10^6 copies/ml, Day 3
[8] = baseline RNA titer ≤10^6 copies/ml, Day 10
[9] = baseline RNA titer ≤10^6 copies/ml, Day 15
[10] = baseline RNA titer ≤10^6 copies/ml, Day 29
[11] = baseline RNA titer ≤10^6 copies/ml, EOT (Day 5)
[12] = Part 2 interim, safety population

CC(C)C(=O)OC[C@H]1O[C@@H](n2ccc(NO)nc2=O)[C@H](O)[C@@H]1O [Compound A, {(2R,3S,4R,5R)-3,4-dihydroxy-5-[4-(hydroxyimino)-2-oxo-3,4-dihydropyrimidin-1 (2H)-yl]oxolan-2-yl}methyl 2-methylpropanoate]
reductions in viral load from baseline versus placebo ([1]; Part 2 interim analysis): significantly greater reductions in viral load from baseline at Days 3 and 5 than placebo | reductions from baseline in mean viral load versus placebo ([1]; final all-randomized analysis, days 3, 5 (end-of-treatment visit), and 10): greater reductions from baseline in mean viral load than placebo | SARS-CoV-2 RNA titer, mean ([1]; MITT, Baseline): 6.85 log^10 copies/ml | SARS-CoV-2 RNA titer, mean ([1]; MITT, Day 3): 5.82 log^10 copies/ml | SARS-CoV-2 RNA titer, mean change from baseline ([1]; MITT, Day 3): −1.04 log^10 copies/ml | SARS-CoV-2 RNA titer, mean ([1]; MITT, Day 10): 3.70 log^10 copies/ml | SARS-CoV-2 RNA titer, mean change from baseline ([1]; MITT, Day 10): −3.18 log^10 copies/ml | SARS-CoV-2 RNA titer, mean ([1]; MITT, Day 15): 3.20 log^10 copies/ml | SARS-CoV-2 RNA titer, mean change from baseline ([1]; MITT, Day 15): −3.69 log^10 copies/ml | SARS-CoV-2 RNA titer, mean ([1]; MITT, Day 29): 2.90 log^10 copies/ml | SARS-CoV-2 RNA titer, mean change from baseline ([1]; MITT, Day 29): −4.08 log^10 copies/ml | SARS-CoV-2 RNA titer, mean ([1]; MITT, EOT (Day 5)): 4.80 log^10 copies/ml | SARS-CoV-2 RNA titer, mean change from baseline ([1]; MITT, EOT (Day 5)): −2.09 log^10 copies/ml | SARS-CoV-2 RNA titer, mean ([1]; baseline RNA titer >10^6 copies/ml, Baseline): 7.71 log^10 copies/ml | SARS-CoV-2 RNA titer, mean [1, 2]: 6.56 log^10 copies/ml | SARS-CoV-2 RNA titer, mean change from baseline [1, 2]: −1.17 log^10 copies/ml | SARS-CoV-2 RNA titer, mean [1, 3]: 3.94 log^10 copies/ml | SARS-CoV-2 RNA titer, mean change from baseline [1, 3]: −3.79 log^10 copies/ml | SARS-CoV-2 RNA titer, mean [1, 4]: 3.26 log^10 copies/ml | SARS-CoV-2 RNA titer, mean change from baseline [1, 4]: −4.47 log^10 copies/ml | SARS-CoV-2 RNA titer, mean [1, 5]: 2.93 log^10 copies/ml | SARS-CoV-2 RNA titer, mean change from baseline [1, 5]: −4.87 log^10 copies/ml | SARS-CoV-2 RNA titer, mean [1, 6]: 5.25 log^10 copies/ml | SARS-CoV-2 RNA titer, mean change from baseline [1, 6]: −2.49 log^10 copies/ml | SARS-CoV-2 RNA titer, mean ([1]; baseline RNA titer ≤10^6 copies/ml, Baseline): 4.58 log^10 copies/ml | SARS-CoV-2 RNA titer, mean [1, 7]: 3.88 log^10 copies/ml | SARS-CoV-2 RNA titer, mean change from baseline [1, 7]: −0.67 log^10 copies/ml | SARS-CoV-2 RNA titer, mean [1, 8]: 3.05 log^10 copies/ml | SARS-CoV-2 RNA titer, mean change from baseline [1, 8]: −1.49 log^10 copies/ml | SARS-CoV-2 RNA titer, mean [1, 9]: 3.01 log^10 copies/ml | SARS-CoV-2 RNA titer, mean change from baseline [1, 9]: −1.51 log^10 copies/ml | SARS-CoV-2 RNA titer, mean [1, 10]: 2.81 log^10 copies/ml | SARS-CoV-2 RNA titer, mean change from baseline [1, 10]: −1.76 log^10 copies/ml | SARS-CoV-2 RNA titer, mean [1, 11]: 3.56 log^10 copies/ml | SARS-CoV-2 RNA titer, mean change from baseline [1, 11]: −1.00 log^10 copies/ml | AE: COVID-19 pneumonia (Part 2 interim): 4.9% | AE: bacterial pneumonia (Part 2 interim): 2.1% | AE: worsening COVID-19 (Part 2 interim): 8.0% | tolerability (Part 2 interim analysis): well-tolerated | Died [12]: (0.0) % | Estimated difference vs placebo: Died [12]: −2.6% | adverse event: Covid-19 pneumonia (final): 6.3% | adverse event: bacterial pneumonia (final): 2.0% | adverse event: worsening of Covid-19 (final): 7.9% | Death (final, safety population): 2 (0.3) number (percent) | Estimated Difference (95% CI) vs placebo: Death (final, safety population): −1.4 (−2.7 to −0.5) percentage points | AE: diarrhea (human, in vivo): 3.9% | AE: nausea (human, in vivo): 2.8% | AE: respiratory failure (human, in vivo): 1.0% | At least 1 serious AE (human, in vivo): (7.3) % | At least 1 serious drug-related AE (human, in vivo): (0.0) % | Discontinued the assigned regimen because of a serious adverse event (human, in vivo): 5 (0.7) number (percent) | Discontinued the assigned regimen because of a serious adverse event related to the assigned regimen (human, in vivo): 0 number (percent) | Discontinued the assigned regimen because of an adverse event (human, in vivo): 10 (1.4) number (percent) | Discontinued the assigned regimen because of an adverse event related to the assigned regimen (human, in vivo): 4 (0.6) number (percent) | Discontinued treatment due to a drug-related AE (human, in vivo): (0.8) % | Discontinued treatment due to a serious AE (human, in vivo): (0.3) % | Discontinued treatment due to a serious drug-related AE (human, in vivo): (0.0) % | Discontinued treatment due to an AE (human, in vivo): (1.3) % | Estimated Difference (95% CI) vs placebo: discontinued because of a serious adverse event (human, in vivo): −1.2 (−2.5 to 0.0) percentage points | Estimated Difference (95% CI) vs placebo: discontinued because of a serious adverse event related to the assigned regimen (human, in vivo): 0.0 (−0.5 to 0.5) percentage points | Estimated Difference (95% CI) vs placebo: discontinued because of an adverse event (human, in vivo): −1.4 (−3.1 to 0.1) percentage points | Estimated Difference (95% CI) vs placebo: discontinued because of an adverse event related to the assigned regimen (human, in vivo): 0.1 (−0.8 to 1.1) percentage points | Estimated Difference (95% CI) vs placebo: ≥1 Adverse event (human, in vivo): −2.5 (−7.4 to 2.3) percentage points | Estimated Difference (95% CI) vs placebo: ≥1 Adverse event related to the assigned regimen (human, in vivo): −0.4 (−3.3 to 2.5) percentage points | Estimated Difference (95% CI) vs placebo: ≥1 Serious adverse event (human, in vivo): −2.7 (−5.6 to 0.2) percentage points | Estimated Difference (95% CI) vs placebo: ≥1 Serious adverse event related to the assigned regimen (human, in vivo): −0.1 (−0.8 to 0.4) percentage points | Estimated difference vs placebo: At least 1 AE (human, in vivo): −4.6% | Estimated difference vs placebo: At least 1 drug-related AE (human, in vivo): 1.4% | Estimated difference vs placebo: At least 1 serious AE (human, in vivo): −6.7% | Estimated difference vs placebo: At least 1 serious drug-related AE (human, in vivo): 0.0% | Estimated difference vs placebo: Discontinued treatment due to a drug-related AE (human, in vivo): −0.0% | Estimated difference vs placebo: Discontinued treatment due to a serious AE (human, in vivo): −2.1% | Estimated difference vs placebo: Discontinued treatment due to a serious drug-related AE (human, in vivo): 0.0% | Estimated difference vs placebo: Discontinued treatment due to an AE (human, in vivo): −2.1% | adverse event related to the trial regimen: diarrhea (human, in vivo): 1.7% | adverse event related to the trial regimen: dizziness (human, in vivo): 1.0% | adverse event related to the trial regimen: nausea (human, in vivo): 1.4% | adverse event: diarrhea (human, in vivo): 2.3% | drug-related AE: diarrhea (human, in vivo): 3.1% | drug-related AE: nausea (human, in vivo): 2.3% | participants with adverse events considered related to the trial regimen (human, in vivo): 8.0% | ≥1 Adverse event (human, in vivo): 216 (30.4) number (percent) | ≥1 Adverse event related to the assigned regimen (human, in vivo): 57 (8.0) number (percent) | ≥1 Serious adverse event (human, in vivo): 49 (6.9) number (percent) | ≥1 Serious adverse event related to the assigned regimen (human, in vivo): 0 number (percent) | hematological laboratory tests (in vivo): no clinically significant abnormalities | liver parameters (in vivo): No clinically significant abnormalities in liver parameters | participants meeting prespecified criteria for platelets <50,000/μL or potential drug-induced liver injury (in vivo): No participants in the Compound A group met prespecified criteria | participants meeting prespecified criteria for postbaseline platelet count below 50,000 per microliter (in vivo): One participant
